Values joined by “and” are separate entries in the source; they are usually repeats but may differ in a detail not shown here. Equal entries are not always repeated.
Key:
[1] = tested on: patients with GRIN-related neurodevelopmental disorder and GoF variants, countable motor seizures (CMS); assay: Open-label phase 1B study, seizure cohort; assay type: in vivo, human
Excerpt: Investigational Product (IP): Radiprodil. This example describes an open-label, multicenter phase 1B study being conducted to evaluate the safety, tolerability, and pharmacokinetics (PK) of multiple individually titrated doses of radiprodil and to assess the treatment effect on seizures in participants with drug-resistant seizures caused by gain-of-function (GoF) variants in the GRIN1, GRIN2A, GRIN2B, or GRIN2D genes (GRIN2B GoF variants in the US only).
(§1) This is a global, open-label, multicenter, phase 1B study to evaluate the safety, tolerability, and PK of multiple individually titrated doses of radiprodil and to assess the treatment effect on seizures and behavioral symptoms in 2 cohorts of pediatric participants: 1 cohort of participants with drug resistant seizures (with or without behavioral symptoms) (Cohort 1) and 1 cohort of participants with behavioral symptoms (but no qualifying seizures) (Cohort 2) caused by GoF variants in the GRIN1, 2A, 2B, or 2D genes (GRIN2B GoF variants only in the US). These GoF variants are gene mutations that cause an increased sensitivity of NMDA receptors to glutamate or through decreased inhibition by magnesium, altered affinity to glycine, or other relevant changes considered to increase NMDA transmission. Drug-resistant seizures are defined as a failure to respond to at least 2 antiseizure medication (ASM) therapies taken at adequate doses for an appropriate duration with assured medication adherence as determined by the treating physician. Participants with seizures to be enrolled in the first cohort should have at least 1 observable motor seizure per week and ≥4 observable motor seizures in the prospective 4-week Observation Period.
A seizure cohort of patients from 6 months to 12 years of age with known GoF variants confirmed via method described in Myers, et al., Hum Mol Genetics. 2023, 32:2857-2871, was enrolled. The patients had drug-resistant seizures with or without behavioral symptoms. Patients also had ≥1 weekly countable motor seizure (CMS) with ≥4 generalized or focal seizures during the observation period. Motor seizures included drop seizures; generalized onset seizures included tonic-clonic, tonic, bilateral clonic, atonic, myoclonic-atonic, and myoclonic-tonic-clonic seizures; and focal seizures included seizures with bilateral hyperkinetic motor features and clonic seizures.
Primary endpoints included safety, tolerability, and radiprodil plasma concentrations. Key secondary endpoints (aka, change from baseline in observable daily CMS frequency using an electronic diary (eDiary)), included ≥50%, ≥90%, and 100% reductions from baseline in seizure frequency; proportion of seizure-free days; and Clinical Global Impressions of Change (CGI-C) and Caregiver Global Impressions of Change (CaGI-C), from baseline to the end of the maintenance period.

PTZ-induced convulsions = assay: Juvenile PTZ rat model of generalized clonic-tonic seizures; assay type: in vivo; conditions: 10 mg/kg; postnatal day 12 and postnatal day 18 rats
Method: (§2) Radiprodil anticonvulsant efficacy was specifically tested in rats at different time points during postnatal development, using pentylenetetrazole (PTZ) as a convulsant, to induce generalized clonic-tonic seizures. The activity of radiprodil in this juvenile PTZ rat model was tested up to 30 mg/kg, showing efficacy at a dose of 1 mg/kg. The calculated free plasma fraction of an orally administered 1 mg/kg dose is expected to give around 60% occupancy of the NR2B receptor, based on an ex-vivo occupancy study in rodents and assuming a 1:1 brain to plasma ratio, see below for further details.

NR2B receptor = target: T1, NR2B receptor (Rattus norvegicus, UniProt P35439+Q00960); assay: NR2B occupancy calculated from ex-vivo occupancy study in rodents; conditions: po; orally administered 1 mg/kg dose; calculated free plasma fraction; 1:1 brain to plasma ratio assumed
T1 construct: from tissue; host or cells: rodent brain (ex vivo)
T1 sequence (Q00960 27-1482, other chains not shown): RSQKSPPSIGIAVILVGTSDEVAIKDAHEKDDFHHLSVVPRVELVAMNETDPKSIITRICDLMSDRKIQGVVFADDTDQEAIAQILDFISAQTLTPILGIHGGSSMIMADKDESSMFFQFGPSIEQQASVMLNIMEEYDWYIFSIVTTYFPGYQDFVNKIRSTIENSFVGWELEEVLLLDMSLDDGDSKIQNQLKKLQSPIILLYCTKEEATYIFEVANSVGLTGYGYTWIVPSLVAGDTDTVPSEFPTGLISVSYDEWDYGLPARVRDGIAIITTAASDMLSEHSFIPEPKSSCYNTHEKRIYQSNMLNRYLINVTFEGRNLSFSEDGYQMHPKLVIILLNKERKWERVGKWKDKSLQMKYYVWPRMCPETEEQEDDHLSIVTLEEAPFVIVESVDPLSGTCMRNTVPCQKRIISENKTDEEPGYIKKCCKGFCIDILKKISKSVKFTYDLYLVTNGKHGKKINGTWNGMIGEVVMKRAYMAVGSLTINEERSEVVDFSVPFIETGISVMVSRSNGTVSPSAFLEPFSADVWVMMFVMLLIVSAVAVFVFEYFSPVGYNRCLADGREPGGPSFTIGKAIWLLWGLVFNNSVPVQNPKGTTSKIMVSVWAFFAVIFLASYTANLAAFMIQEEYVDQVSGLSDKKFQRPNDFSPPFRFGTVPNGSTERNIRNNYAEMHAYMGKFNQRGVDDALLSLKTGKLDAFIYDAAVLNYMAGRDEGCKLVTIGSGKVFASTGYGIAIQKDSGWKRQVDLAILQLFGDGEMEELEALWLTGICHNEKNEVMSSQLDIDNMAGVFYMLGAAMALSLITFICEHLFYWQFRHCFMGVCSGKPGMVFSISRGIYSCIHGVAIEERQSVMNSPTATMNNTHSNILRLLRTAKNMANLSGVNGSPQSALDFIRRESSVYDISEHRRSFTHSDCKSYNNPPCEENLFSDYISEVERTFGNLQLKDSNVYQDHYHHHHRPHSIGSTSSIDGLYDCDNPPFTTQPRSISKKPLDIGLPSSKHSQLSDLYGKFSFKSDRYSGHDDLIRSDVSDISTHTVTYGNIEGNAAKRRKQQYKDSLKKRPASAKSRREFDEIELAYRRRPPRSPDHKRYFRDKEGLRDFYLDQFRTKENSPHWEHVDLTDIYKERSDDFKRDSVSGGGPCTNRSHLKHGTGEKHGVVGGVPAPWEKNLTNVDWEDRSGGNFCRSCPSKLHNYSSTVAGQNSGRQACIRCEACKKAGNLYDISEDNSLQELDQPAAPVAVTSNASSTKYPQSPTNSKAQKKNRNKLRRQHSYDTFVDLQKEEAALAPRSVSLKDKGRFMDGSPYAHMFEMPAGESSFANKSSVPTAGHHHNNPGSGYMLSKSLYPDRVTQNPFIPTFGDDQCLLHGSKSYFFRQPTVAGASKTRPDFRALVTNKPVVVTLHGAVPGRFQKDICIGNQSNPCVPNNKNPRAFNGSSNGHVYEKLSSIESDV
Method: as §2

[2] = tested on: patients with GRIN-related neurodevelopmental disorder and GoF variants, behavioral symptoms; assay: Open-label phase 1B study, behavioral cohort; assay type: in vivo, human
Excerpt: as §1
A behavioral cohort of patients from 6 months to 12 years of age with known GoF variants confirmed via method described in Myers, et al., Hum Mol Genetics. 2023, 32:2857-2871, was enrolled. […] Motor seizures included drop seizures; generalized onset seizures included tonic-clonic, tonic, bilateral clonic, atonic, myoclonic-atonic, and myoclonic-tonic-clonic seizures; and focal seizures included seizures with bilateral hyperkinetic motor features and clonic seizures.

[3] = 4-week juvenile rat toxicology study; assay type: in vivo; conditions: 0.05 mg/kg bid starting dose
Method: The starting dose for each participant enrolled in the study will be set at 0.05 mg/kg bid. […] In patients with neuropathic pain, a total daily dose of 135 mg (45 mg tid) up to 14 weeks has been previously administered. […] Dose Escalation
For the sites not located in the US, based on the dedicated PBPK model, the increment will be a dose expected to give no more than a 2.5-fold higher plasma concentration.

[4] = all unrelated to radiprodil treatment

## O=C(Nc1ccc2[nH]c(=O)oc2c1)C(=O)N1CCC(Cc2ccc(F)cc2)CC1 [radiprodil, Radiprodil]
[1]; 8-week maintenance period
  patients seizure-free during 80% of days: 6 of 7
[1]; Example 4
  tolerability: generally well-tolerated
[1]; Seizure Cohort (n = 8)
  Any TEAE: 8 (100) n (%)
  TEAE Abnormal behavior: 1 (12.5) n (%)
  TEAE Agitation: 1 (12.5) n (%)
  TEAE Cough: 2 (25.0) n (%)
  TEAE Diarrhoea: 2 (25.0) n (%)
  TEAE Dystonia: 2 (25.0) n (%)
  TEAE Fatigue: 1 (12.5) n (%)
  TEAE Gastroenteritis: 2 (25.0) n (%)
  TEAE Pyrexia: 4 (50.0) n (%)
  TEAE Respiratory tract infection: 2 (25.0) n (%)
[1]; after radiprodil treatment
  seizure cohort patients with reductions from baseline in CMS frequency: 6 of the 7 and 6 of 7
[1]; [4]
  patients who experienced SAEs: Three
[1]; caregivers, seizure cohort
  Caregiver Global Impressions of Change (CaGI-C): clinical improvement in most patients
[1]; clinicians, seizure cohort
  Clinical Global Impressions of Change (CGI-C): clinical improvement in most patients
[1]; seizure cohort
  reduction in CMS frequency in most patients: ≥ 50%
PTZ-induced convulsions
  tonic phases of PTZ-induced convulsions: completely blocked
NR2B receptor
  receptor occupancy at 1 mg/kg: ~60%
[2]; Behavioral Cohort (n = 7)
  Any TEAE: 6 (85.7) n (%)
  TEAE Abnormal behavior: 2 (28.6) n (%)
  TEAE Agitation: 2 (28.6) n (%)
  TEAE Cough: 1 (14.3) n (%)
  TEAE Diarrhea: 2 (28.6) n (%)
  TEAE Dystonia: 1 (14.3) n (%)
  TEAE Fatigue: 2 (28.6) n (%)
  TEAE Gastroenteritis: 1 (14.3) n (%)
  TEAE Pyrexia: 1 (14.3) n (%)
  TEAE Respiratory tract infection: 2 (28.6) n (%)
[2]; Example 9
  tolerability: generally well-tolerated
[2]; [4]
  patients who experienced SAEs: Three
[2]; caregivers, behavioral cohort
  Caregiver Global Impressions of Change (CaGI-C): clinical improvement in most patients
[2]; clinicians, behavioral cohort
  Clinical Global Impressions of Change (CGI-C): clinical improvement in most patients
[3]
  exposure level (total Cmax and AUC) lower than NOAEL exposure in juvenile rat toxicology study: more than 20 fold

From patent US12691063B1, “Methods of using radiprodil in the treatment of disorders” (GRIN Therapeutics, Inc., priority 2023, dated 2026)
